How the values were obtained:
Assay in all cases: Test E pre-/postemergence greenhouse herbicide test
Type in all cases: in vivo
[1] = test system: arrowleaf sida (Sida rhombifolia); details: scale 0 to 100
Source text: (§1) Seeds of plant species selected from corn (Zea mays), soybean (Glycine max), lambsquarters (Chenopodium album), poinsettia, wild (wild poinsettia, Euphorbia heterophylla), pigweed, palmer (palmer pigweed, Amaranthus palmeri), waterhemp (common waterhemp, Amaranthus rudis), surinam grass (Brachiaria decumbens), crabgrass, large (large crabgrass Digitaria sanguinalis), crabgrass, Brazil (Brazilian crabgrass, Digitaria horizontalis), panicum, fall (fall panicum, Panicum dichotomiflorum), foxtail, giant (giant foxtail, Setaria faberii), foxtail, green (green foxtail, Setaria viridis), goosegrass (Eleusine indica), johnsongrass (Sorghum halepense), ragweed (common ragweed, Ambrosia elatior), barnyardgrass (Echinochloa crus-galli), sandbur (southern sandbur, Cenchrus echinatus), arrowleaf sida (Sida rhombifolia), ryegrass, Italian (Italian ryegrass, Lolium multiflorum), dayflower, VA (Virginia dayflower, Commelina virginica), field bindweed (Convolvulus arvensis), cocklebur (common cocklebur, Xanthium strumarium), morningglory (Ipomoea coccinea), nightshade (eastern black nightshade, Solanum ptycanthum), kochia (Kochia scoparia), nutsedge, yellow (yellow nutsedge, Cyperus esculentus), smartweed (ladysthumb smartweed, Polygonum persicaria), velvetleaf (Abutilon theophrasti), and beggarticks (hairy beggarticks, Bidens pilosa), were planted into a silt loam soil and treated preemergence with test chemicals formulated in a non-phytotoxic solvent mixture which included a surfactant.
(§2) At the same time, plants from these crop and weed species and also waterhemp_RES1, (ALS & Triazine resistant common waterhemp, Amaranthus rudis), and waterhemp_RES2, (ALS & HPPD resistant common waterhemp, Amaranthus rudis) were planted in pots containing Redi-Earth® planting medium (Scotts Company, 14111 Scottslawn Road, Marysville, Ohio 43041) comprising spaghnum peat moss, vermiculite, wetting agent and starter nutrients were treated with postemergence applications of test chemicals formulated in the same manner. Plants ranged in height from 2 to 18 cm for postemergence treatments (1- to 4-leaf stage). Treated plants and controls were maintained in a greenhouse for 14 to 21 d, after which time all species were compared to controls and visually evaluated. Plant response ratings, summarized in Table E, are based on a scale of 0 to 100 where 0 is no effect and 100 is complete control. A dash (-) response means no test result.

[2] = test system: beggarticks (hairy beggarticks, Bidens pilosa); details: scale 0 to 100
Source text: as §1, §2

[3] = test system: crabgrass, Brazil (Brazilian crabgrass, Digitaria horizontalis); details: scale 0 to 100
Source text: as §1, §2

[4] = test system: dayflower, VA (Virginia dayflower, Commelina virginica); details: scale 0 to 100
Source text: as §1, §2

[5] = test system: foxtail, giant (giant foxtail, Setaria faberii); details: Preemergence, scale 0 to 100
Source text: as §1, §2

[6] = test system: johnsongrass (Sorghum halepense); details: Preemergence, scale 0 to 100
Source text: as §1, §2

kochia (Kochia scoparia) = details: Preemergence, scale 0 to 100
Source text: as §1, §2

[7] = test system: morningglory (Ipomoea coccinea); details: Preemergence, scale 0 to 100
Source text: as §1, §2

[8] = test system: nightshade (eastern black nightshade, Solanum ptycanthum); details: Preemergence, scale 0 to 100
Source text: as §1, §2

[9] = test system: panicum, fall (fall panicum, Panicum dichotomiflorum); details: scale 0 to 100
Source text: as §1, §2

[10] = test system: pigweed, palmer (palmer pigweed, Amaranthus palmeri); details: scale 0 to 100
Source text: as §1, §2

[11] = test system: ryegrass, Italian (Italian ryegrass, Lolium multiflorum); details: scale 0 to 100
Source text: as §1, §2

[12] = test system: sandbur (southern sandbur, Cenchrus echinatus); details: scale 0 to 100
Source text: as §1, §2

soybean (Glycine max) = details: scale 0 to 100
Source text: as §1, §2

[13] = test system: velvetleaf (Abutilon theophrasti); details: Preemergence, scale 0 to 100
Source text: as §1, §2

Compound: COc1cc(=O)n(-c2ccc(F)cc2)nc1Cc1ccnc(C(F)(F)F)c1 [Compound 17, 2-(4-fluorophenyl)-5-methoxy-6-[[2-(trifluoromethyl)-4-pyridinyl]methyl]-3 (2H)-pyridazinone]
- Plant response rating: Arrowleaf Sida ([1]; Postemergence, 16 g ai/ha): 30
- Plant response rating: Arrowleaf Sida ([1]; Postemergence, 31 g ai/ha): 40
- Plant response rating: Arrowleaf Sida ([1]; Postemergence, 62 g ai/ha): 50
- Plant response rating: Arrowleaf Sida ([1]; Postemergence, 125 g ai/ha): 50
- Plant response rating: Arrowleaf Sida ([1]; Postemergence, 250 g ai/ha): 70
- Plant response rating: Arrowleaf Sida ([1]; Preemergence, 16 g ai/ha): 0
- Plant response rating: Arrowleaf Sida ([1]; Preemergence, 31 g ai/ha): 0
- Plant response rating: Arrowleaf Sida ([1]; Preemergence, 62 g ai/ha): 0
- Plant response rating: Arrowleaf Sida ([1]; Preemergence, 125 g ai/ha): 0
- Plant response rating: Arrowleaf Sida ([1]; Preemergence, 250 g ai/ha): 0
- Plant response rating: Beggarticks ([2]; Postemergence, 16 g ai/ha): 20
- Plant response rating: Beggarticks ([2]; Postemergence, 31 g ai/ha): 30
- Plant response rating: Beggarticks ([2]; Postemergence, 62 g ai/ha): 30
- Plant response rating: Beggarticks ([2]; Postemergence, 125 g ai/ha): 35
- Plant response rating: Beggarticks ([2]; Postemergence, 250 g ai/ha): 55
- Plant response rating: Beggarticks ([2]; Preemergence, 16 g ai/ha): 0
- Plant response rating: Beggarticks ([2]; Preemergence, 31 g ai/ha): 0
- Plant response rating: Beggarticks ([2]; Preemergence, 62 g ai/ha): 0
- Plant response rating: Beggarticks ([2]; Preemergence, 125 g ai/ha): 5
- Plant response rating: Beggarticks ([2]; Preemergence, 250 g ai/ha): 20
- Plant response rating: Crabgrass, Brazil ([3]; Postemergence, 16 g ai/ha): 20
- Plant response rating: Crabgrass, Brazil ([3]; Postemergence, 31 g ai/ha): 20
- Plant response rating: Crabgrass, Brazil ([3]; Postemergence, 62 g ai/ha): 20
- Plant response rating: Crabgrass, Brazil ([3]; Postemergence, 125 g ai/ha): 30
- Plant response rating: Crabgrass, Brazil ([3]; Postemergence, 250 g ai/ha): 70
- Plant response rating: Crabgrass, Brazil ([3]; Preemergence, 16 g ai/ha): 100
- Plant response rating: Crabgrass, Brazil ([3]; Preemergence, 31 g ai/ha): 100
- Plant response rating: Crabgrass, Brazil ([3]; Preemergence, 62 g ai/ha): 100
- Plant response rating: Crabgrass, Brazil ([3]; Preemergence, 125 g ai/ha): 100
- Plant response rating: Crabgrass, Brazil ([3]; Preemergence, 250 g ai/ha): 100
- Plant response rating: Dayflower, VA ([4]; Postemergence, 16 g ai/ha): 10
- Plant response rating: Dayflower, VA ([4]; Postemergence, 31 g ai/ha): 10
- Plant response rating: Dayflower, VA ([4]; Postemergence, 62 g ai/ha): 15
- Plant response rating: Dayflower, VA ([4]; Postemergence, 125 g ai/ha): 30
- Plant response rating: Dayflower, VA ([4]; Postemergence, 250 g ai/ha): 40
- Plant response rating: Dayflower, VA ([4]; Preemergence, 16 g ai/ha): 0
- Plant response rating: Dayflower, VA ([4]; Preemergence, 31 g ai/ha): 10
- Plant response rating: Dayflower, VA ([4]; Preemergence, 62 g ai/ha): 20
- Plant response rating: Dayflower, VA ([4]; Preemergence, 250 g ai/ha): 80
- Plant response rating: Foxtail, Giant ([5]; 16 g ai/ha): 0
- Plant response rating: Foxtail, Giant ([5]; 31 g ai/ha): 40
- Plant response rating: Foxtail, Giant ([5]; 62 g ai/ha): 65
- Plant response rating: Foxtail, Giant ([5]; 125 g ai/ha): 100
- Plant response rating: Foxtail, Giant ([5]; 250 g ai/ha): 100
- Plant response rating: Johnsongrass ([6]; 16 g ai/ha): 0
- Plant response rating: Johnsongrass ([6]; 31 g ai/ha): 10
- Plant response rating: Johnsongrass ([6]; 62 g ai/ha): 35
- Plant response rating: Johnsongrass ([6]; 125 g ai/ha): 75
- Plant response rating: Johnsongrass ([6]; 250 g ai/ha): 90
- Plant response rating: Kochia (kochia (Kochia scoparia); 16 g ai/ha): 70
- Plant response rating: Kochia (kochia (Kochia scoparia); 31 g ai/ha): 90
- Plant response rating: Kochia (kochia (Kochia scoparia); 62 g ai/ha): 95
- Plant response rating: Kochia (kochia (Kochia scoparia); 125 g ai/ha): 98
- Plant response rating: Kochia (kochia (Kochia scoparia); 250 g ai/ha): 98
- Plant response rating: Morningglory ([7]; 16 g ai/ha): 0
- Plant response rating: Morningglory ([7]; 31 g ai/ha): 35
- Plant response rating: Morningglory ([7]; 62 g ai/ha): 60
- Plant response rating: Morningglory ([7]; 125 g ai/ha): 65
- Plant response rating: Morningglory ([7]; 250 g ai/ha): 70
- Plant response rating: Nightshade ([8]; 16 g ai/ha): 0
- Plant response rating: Nightshade ([8]; 31 g ai/ha): 80
- Plant response rating: Nightshade ([8]; 62 g ai/ha): 98
- Plant response rating: Nightshade ([8]; 125 g ai/ha): 98
- Plant response rating: Nightshade ([8]; 250 g ai/ha): 98
- Plant response rating: Panicum, Fall ([9]; Postemergence, 16 g ai/ha): 15
- Plant response rating: Panicum, Fall ([9]; Postemergence, 31 g ai/ha): 20
- Plant response rating: Panicum, Fall ([9]; Postemergence, 62 g ai/ha): 20
- Plant response rating: Panicum, Fall ([9]; Postemergence, 125 g ai/ha): 30
- Plant response rating: Panicum, Fall ([9]; Postemergence, 250 g ai/ha): 50
- Plant response rating: Panicum, Fall ([9]; Preemergence, 16 g ai/ha): 80
- Plant response rating: Panicum, Fall ([9]; Preemergence, 31 g ai/ha): 90
- Plant response rating: Panicum, Fall ([9]; Preemergence, 62 g ai/ha): 98
- Plant response rating: Panicum, Fall ([9]; Preemergence, 125 g ai/ha): 100
- Plant response rating: Panicum, Fall ([9]; Preemergence, 250 g ai/ha): 100
- Plant response rating: Pigweed, Palmer ([10]; Postemergence, 16 g ai/ha): 20
- Plant response rating: Pigweed, Palmer ([10]; Postemergence, 31 g ai/ha): 20
- Plant response rating: Pigweed, Palmer ([10]; Postemergence, 62 g ai/ha): 30
- Plant response rating: Pigweed, Palmer ([10]; Postemergence, 125 g ai/ha): 80
- Plant response rating: Pigweed, Palmer ([10]; Postemergence, 250 g ai/ha): 100
- Plant response rating: Pigweed, Palmer ([10]; Preemergence, 16 g ai/ha): 0
- Plant response rating: Pigweed, Palmer ([10]; Preemergence, 31 g ai/ha): 0
- Plant response rating: Pigweed, Palmer ([10]; Preemergence, 62 g ai/ha): 25
- Plant response rating: Pigweed, Palmer ([10]; Preemergence, 125 g ai/ha): 80
- Plant response rating: Pigweed, Palmer ([10]; Preemergence, 250 g ai/ha): 100
- Plant response rating: Ryegrass, Italian ([11]; Postemergence, 16 g ai/ha): 0
- Plant response rating: Ryegrass, Italian ([11]; Postemergence, 31 g ai/ha): 0
- Plant response rating: Ryegrass, Italian ([11]; Postemergence, 62 g ai/ha): 0
- Plant response rating: Ryegrass, Italian ([11]; Postemergence, 125 g ai/ha): 0
- Plant response rating: Ryegrass, Italian ([11]; Postemergence, 250 g ai/ha): 15
- Plant response rating: Ryegrass, Italian ([11]; Preemergence, 16 g ai/ha): 20
- Plant response rating: Ryegrass, Italian ([11]; Preemergence, 31 g ai/ha): 25
- Plant response rating: Ryegrass, Italian ([11]; Preemergence, 62 g ai/ha): 25
- Plant response rating: Ryegrass, Italian ([11]; Preemergence, 125 g ai/ha): 50
- Plant response rating: Ryegrass, Italian ([11]; Preemergence, 250 g ai/ha): 75
- Plant response rating: Sandbur ([12]; Postemergence, 16 g ai/ha): 10
- Plant response rating: Sandbur ([12]; Postemergence, 31 g ai/ha): 20
- Plant response rating: Sandbur ([12]; Postemergence, 62 g ai/ha): 20
- Plant response rating: Sandbur ([12]; Postemergence, 125 g ai/ha): 35
- Plant response rating: Sandbur ([12]; Postemergence, 250 g ai/ha): 75
- Plant response rating: Sandbur ([12]; Preemergence, 16 g ai/ha): 0
- Plant response rating: Sandbur ([12]; Preemergence, 31 g ai/ha): 5
- Plant response rating: Sandbur ([12]; Preemergence, 62 g ai/ha): 40
- Plant response rating: Sandbur ([12]; Preemergence, 125 g ai/ha): 70
- Plant response rating: Sandbur ([12]; Preemergence, 250 g ai/ha): 98
- Plant response rating: Soybean (soybean (Glycine max); Postemergence, 16 g ai/ha): 30
- Plant response rating: Soybean (soybean (Glycine max); Postemergence, 31 g ai/ha): 30
- Plant response rating: Soybean (soybean (Glycine max); Postemergence, 62 g ai/ha): 50
- Plant response rating: Soybean (soybean (Glycine max); Postemergence, 125 g ai/ha): 60
- Plant response rating: Soybean (soybean (Glycine max); Postemergence, 250 g ai/ha): 85
- Plant response rating: Soybean (soybean (Glycine max); Preemergence, 16 g ai/ha): 0
- Plant response rating: Soybean (soybean (Glycine max); Preemergence, 31 g ai/ha): 0
- Plant response rating: Soybean (soybean (Glycine max); Preemergence, 62 g ai/ha): 0
- Plant response rating: Soybean (soybean (Glycine max); Preemergence, 125 g ai/ha): 65
- Plant response rating: Soybean (soybean (Glycine max); Preemergence, 250 g ai/ha): 80
- Plant response rating: Velvetleaf ([13]; 16 g ai/ha): 0
- Plant response rating: Velvetleaf ([13]; 31 g ai/ha): 0
- Plant response rating: Velvetleaf ([13]; 62 g ai/ha): 20
- Plant response rating: Velvetleaf ([13]; 125 g ai/ha): 25
- Plant response rating: Velvetleaf ([13]; 250 g ai/ha): 70

Reference: patent US10202361B2, “Pyridazinones as herbicides” (E I DU PONT DE NEMOURS AND COMPANY, priority 2014, dated 2019)
